Measurements from paper PMC10797628.
Where two headings read alike, the source gives them in different places.

Assays:
human 5-HT1A receptor [1] = biological target: T1, human 5-HT1A receptor (Homo sapiens, UniProt P08908); assay: Radioligand binding (saturation and competition), WT 5-HT1A
T1 construct: host or cells: HEK293T
T1 sequence (P08908 1-422): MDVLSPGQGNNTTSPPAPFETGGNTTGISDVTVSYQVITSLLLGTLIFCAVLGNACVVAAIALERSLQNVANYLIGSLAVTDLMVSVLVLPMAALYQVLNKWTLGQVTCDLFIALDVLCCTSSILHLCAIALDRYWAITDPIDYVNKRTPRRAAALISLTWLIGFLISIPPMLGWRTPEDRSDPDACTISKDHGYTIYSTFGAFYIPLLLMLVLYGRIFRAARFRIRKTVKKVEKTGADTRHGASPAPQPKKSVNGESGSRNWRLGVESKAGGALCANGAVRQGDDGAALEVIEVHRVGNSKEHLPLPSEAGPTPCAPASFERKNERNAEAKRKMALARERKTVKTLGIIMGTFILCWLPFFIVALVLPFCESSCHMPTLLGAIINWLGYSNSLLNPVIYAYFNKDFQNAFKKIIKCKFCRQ

human 5-HT1F receptor = biological target: T2, human 5-HT1F receptor (Homo sapiens, UniProt P30939); assay: Radioligand binding (saturation and competition), WT 5-HT1F
T2 construct: host or cells: HEK293T
T2 sequence (P30939 1-366): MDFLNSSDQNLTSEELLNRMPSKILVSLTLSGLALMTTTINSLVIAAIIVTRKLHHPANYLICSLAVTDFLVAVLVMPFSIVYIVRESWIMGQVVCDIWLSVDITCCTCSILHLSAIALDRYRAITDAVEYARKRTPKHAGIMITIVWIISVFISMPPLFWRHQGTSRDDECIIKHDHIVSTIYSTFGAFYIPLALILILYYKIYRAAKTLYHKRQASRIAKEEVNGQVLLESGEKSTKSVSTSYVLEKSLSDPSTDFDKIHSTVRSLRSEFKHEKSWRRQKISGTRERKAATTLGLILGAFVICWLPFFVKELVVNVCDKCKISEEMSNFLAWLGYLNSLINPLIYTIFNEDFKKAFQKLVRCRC

human 5-HT1D receptor [2] = biological target: T3, human 5-HT1D receptor (Homo sapiens, UniProt P28221); assay: Radioligand binding (saturation and competition), WT 5-HT1D
T3 construct: host or cells: HEK293T

human 5-HT1B receptor [3] = biological target: T4, human 5-HT1B receptor (Homo sapiens, UniProt P28222); assay: Radioligand binding (saturation and competition), WT 5-HT1B
T4 construct: host or cells: HEK293T

human 5-HT1D receptor [4] = biological target: T3, human 5-HT1D receptor; assay: cAMP accumulation (LANCE Ultra TR-FRET) in HEK293T cells, WT 5-HT1D; type: cell-based; conditions: WT receptor; normalized to basal (0%) and 10 μM 5-CT (100%)
Description: (§1) Briefly, cells transfected with the desired receptor construct and compounds were incubated in the dark for 90 min at 37 °C. After incubation, cAMP detection reagents were added, and TR-FRET was used to quantify the cAMP produced.
(§2) The functional activity of compounds was determined by stimulating cells expressing the desired receptor with FSK and test compound in parallel with 12 known concentrations of cAMP. The known concentrations of cAMP were used to create a standard curve for each experiment that was used to interpolate the unknown values of cAMP in wells with test compounds. […] The EC50 and EMAX values were determined using the “dose response – log[agonist] vs response (three parameter)” nonlinear regression model in Prism and transformed to pEC50 values, reported as mean ± SD.
(§3) Summary of functional assay conditions at various 5-HT1 receptor point mutation constructs.

human 5-HT1B receptor [5] = biological target: T4, human 5-HT1B receptor; assay: cAMP accumulation (LANCE Ultra TR-FRET) in HEK293T cells, WT 5-HT1B; type: cell-based; conditions: WT receptor; normalized to basal (0%) and 10 μM 5-CT (100%)
Description: as §1, §2, §3

human 5-HT1A receptor [6] = biological target: T1, human 5-HT1A receptor; assay: cAMP accumulation (LANCE Ultra TR-FRET) in HEK293T cells, WT 5-HT1A; type: cell-based; conditions: WT receptor; normalized to basal (0%) and 10 μM 5-CT (100%)
Description: as §1, §2, §3

[7] = Affinity (pKi ± SD) 5-HT1D, WT receptor, [^3H]5-CT competition, mean ± SD
[8] = Affinity (pKi ± SD) 5-HT1B, WT receptor, [^3H]5-CT competition, mean ± SD
[9] = Affinity (pKi ± SD) 5-HT1A, WT receptor, [^3H]5-CT competition, mean ± SD

T4 sequence (P28222 whole entry): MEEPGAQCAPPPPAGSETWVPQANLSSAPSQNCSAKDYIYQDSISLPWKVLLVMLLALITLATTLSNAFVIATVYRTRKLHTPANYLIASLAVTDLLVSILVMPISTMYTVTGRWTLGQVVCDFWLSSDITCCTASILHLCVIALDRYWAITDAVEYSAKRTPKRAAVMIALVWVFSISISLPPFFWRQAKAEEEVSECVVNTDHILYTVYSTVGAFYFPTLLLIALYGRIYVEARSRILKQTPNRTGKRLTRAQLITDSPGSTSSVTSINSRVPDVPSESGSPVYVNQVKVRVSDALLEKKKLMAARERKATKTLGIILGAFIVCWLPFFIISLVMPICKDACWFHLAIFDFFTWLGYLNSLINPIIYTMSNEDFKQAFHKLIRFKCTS
T3 sequence (P28221 whole entry): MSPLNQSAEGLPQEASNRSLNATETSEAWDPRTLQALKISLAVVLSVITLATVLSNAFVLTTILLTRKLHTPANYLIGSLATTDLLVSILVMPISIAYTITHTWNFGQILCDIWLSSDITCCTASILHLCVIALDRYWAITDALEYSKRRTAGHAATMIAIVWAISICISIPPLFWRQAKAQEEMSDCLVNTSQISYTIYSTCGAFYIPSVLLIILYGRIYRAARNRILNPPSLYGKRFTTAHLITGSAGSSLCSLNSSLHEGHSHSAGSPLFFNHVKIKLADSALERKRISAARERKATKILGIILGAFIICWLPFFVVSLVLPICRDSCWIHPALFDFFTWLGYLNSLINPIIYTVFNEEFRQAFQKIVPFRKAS

| Compound | Ki (human 5-HT1F receptor) | Ki (human 5-HT1D receptor [2]; [7]) | Ki (human 5-HT1B receptor [3]; [8]) | Ki (human 5-HT1A receptor [1]; [9]) | further results |
| --- | --- | --- | --- | --- | --- |
| CCCN(CCC)C1CCc2cccc(O)c2C1 (stereo not shown) [8-OH-DPAT, 8-hydroxy-N,N-dipropyl-1,2,3,4-tetrahydronaphthalen-2-amine, reference compound] |  |  |  |  | higher affinity at the 5-HT1A receptor over 5-HT1B and 5-HT1D receptors (human 5-HT1A receptor [1]; affinity ratio): 10–20 fold |
| CN(C)[C@@H]1CCc2c(cccc2-c2ccccc2)C1 [(R)-5-PAT] | > 10 µM | 282 nM | 1320 nM | 1050 nM |  |
| CCCN(CCC)[C@@H]1CCc2cccc(O)c2C1 [(R)-8-OH-DPAT, 8-hydroxy-N,N-dipropyl-1,2,3,4-tetrahydronaphthalen-2-amine, reference compound] |  |  |  |  | 5-HT1D EMAX (%) (human 5-HT1D receptor [4]): 96 ± 2%; 5-HT1B EMAX (%) (human 5-HT1B receptor [5]): 87 ± 4%; 5-HT1A EMAX (%) (human 5-HT1A receptor [6]): 95 ± 4% |
| CN(C)[C@@H]1CCc2c(cccc2-c2ccccc2Cl)C1 [(R)-CPT] | > 10 µM | 417 nM | 72.4 nM | 2140 nM |  |
| CCCN(CCC)[C@@H]1CCc2c(cccc2-c2ccccc2Cl)C1 [(R)-DCPT] | > 10 µM | 117 nM | 55 nM | 117 nM |  |
| CCCN(CCC)[C@@H]1CCc2c(cccc2-c2ccccc2F)C1 [(R)-DFPT] | > 10 µM | 107 nM | 64.6 nM | 117 nM |  |
| CN(C)[C@@H]1CCc2c(cccc2-c2ccco2)C1 [(R)-FAT] | > 10 µM | 214 nM | 550 nM | 537 nM |  |
| CN(C)[C@@H]1CCc2c(cccc2-c2ccccc2F)C1 [(R)-FPT] | > 10 µM | 912 nM | 240 nM |  |  |
| CN(C)[C@@H]1CCc2c(cccc2-c2cccc3ccccc23)C1 [(R)-NAP] | > 10 µM | 107 nM | 155 nM | 263 nM |  |
| CN(C)[C@@H]1CCc2c(cccc2-c2cccn2C)C1 [(R)-NMP] | > 10 µM | 316 nM | 339 nM |  | Affinity (pKi ± SD) 5-HT1A (human 5-HT1A receptor [1]; WT receptor, [^3H]5-CT competition, mean ± SD): 6.26 ± 0.03 |
| Fc1ccccc1-c1cccc2c1CC[C@@H](N1CCCC1)C2 [(R)-PFPT] |  |  |  |  | Ki (human 5-HT1F receptor; WT receptor, [^3H]5-HT competition, mean ± SD, read-out: Affinity (pKi ± SD) 5-HT1F (converted)): > 10 µM; Ki (human 5-HT1D receptor [2]; read-out: Affinity (pKi ± SD) 5-HT1D (converted)): 417 nM; Ki (human 5-HT1B receptor [3]; read-out: Affinity (pKi ± SD) 5-HT1B (converted)): 457 nM; Ki (human 5-HT1A receptor [1]; read-out: Affinity (pKi ± SD) 5-HT1A (converted)): 288 nM |
| CN(C)[C@@H]1CCc2c(cccc2-c2cccs2)C1 [(R)-TAT] | > 10 µM | 813 nM | 3160 nM | 1510 nM |  |
